# Where “and” joins values, the source holds several entries; their conditions need not be identical. Equal entries are not always repeated.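 Following 48 hours of exposure in 96-well plates, responses at five concentrations were used to interpolate endpoints linearly. GI50: concentration for 50% inhibition of growth. TGI marks complete inhibition of growth.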
# Experiments:
# Assay in all cases: DTP human tumour cell line panel, 48 h
# SR leukemia = system: SR leukemia
# ACHN renal = system: ACHN renal
# M14 melanoma = system: M14 melanoma
# OVCAR-8 ovarian = system: OVCAR-8 ovarian
# A498 renal = system: A498 renal
# NCI-H522 lung = system: NCI-H522 lung
# MOLT-4 leukemia = system: MOLT-4 leukemia
# SN12C renal = system: SN12C renal
# KM12 colon = system: KM12 colon
# OVCAR-3 ovarian = system: OVCAR-3 ovarian
SMILES,TGI (SR leukemia),TGI (ACHN renal),TGI (M14 melanoma),TGI (OVCAR-8 ovarian),TGI (A498 renal),TGI (NCI-H522 lung),TGI (MOLT-4 leukemia),TGI (SN12C renal),TGI (KM12 colon),TGI (OVCAR-3 ovarian),GI50 (OVCAR-3 ovarian) [µM],GI50 (SR leukemia) [µM],GI50 (ACHN renal) [µM],GI50 (M14 melanoma) [µM],GI50 (A498 renal) [µM],GI50 (MOLT-4 leukemia) [µM],GI50 (KM12 colon) [µM],GI50 (NCI-H522 lung) [µM],GI50 (SN12C renal) [µM],GI50 (OVCAR-8 ovarian) [µM]
O=C1C=CC=CC2CC=C[C@@H](O)C12 (some centres not stated),44.2 µM,31.8 µM,50.7 µM,> 100 µM,38.2 µM,26.8 µM,> 100 µM,47.2 µM,24.5 µM,–,–,–,–,–,–,–,–,–,–,–
CC(C)C1(O)C(c2ccccc2)=C(c2ccccc2)C(c2ccccc2)=C1c1ccccc1,36 µM,–,22.4 µM,> 100 µM,56.3 µM,23.9 µM,9.27 µM,41.6 µM,17.9 µM,27.8 µM,–,–,–,–,–,–,–,–,–,–
CCCCC1CC(c2cccc([N+](=O)[O-])c2)=NO1 (configuration not stated),> 100 µM,> 100 µM,> 100 µM,> 100 µM,> 100 µM,> 100 µM,> 100 µM,> 100 µM,> 100 µM,> 100 µM,–,–,–,–,–,–,–,–,–,–
O=C(c1ccc2ccccc2c1)c1c(C(F)(F)F)n([O-])c2cc(F)c(F)cc2[n+]1=O,3.18 µM,4.16 µM,7.11 µM,–,32.1 µM,–,2.68 µM,–,8.1 µM,2.98 µM,1.46,0.45,2.03,2.53,16,0.749,0.937,–,–,–
COc1cc(/C=C2\CCC/C(=C\c3cc(OC)c(O)c(OC)c3)C2=O)cc(OC)c1O,75 µM and 28.8 µM,2.31 µM and 3.94 µM,75 µM and 69.4 µM,75 µM,3.21 µM and 4.81 µM,3.5 µM and 2.85 µM,75 µM and 36.5 µM,75 µM and > 100 µM,8.33 µM,–,3.47,1.73,1.85,2.9,2.18,2.97,–,1.24,4.37,–
Cc1ccc(/C(=N\N=C(N)N)c2ccccc2)cc1,24.8 µM,14.8 µM,0.977 µM,14.3 µM,1.02 µM,13.3 µM,> 92.3 µM,13.4 µM,5.05 µM,0.597 µM,0.228,1.83,0.777,0.285,0.272,0.796,0.367,0.372,0.587,0.521
C[C@H](NC(=O)[C@@H]1CSSC[C@@H](NC(=O)c2nc3ccccc3cc2O)C(=O)NCC(=O)N1C)c1ccccc1,0.877 µM,12.8 µM,9.76 µM,17.7 µM,33.5 µM,10.2 µM,3.27 µM,14.1 µM,8.56 µM,1.35 µM,0.584,0.17,4.63,0.318,15,0.894,0.629,3.13,5.62,5.16
C=C(CCCCCCCCC)CC(=O)SCCNC(=O)CCNC(=O)C(O)C(C)(C)COP(=O)(O)OP(=O)(O)OCC1OC(n2cnc3c(N)ncnc32)C(O)C1OP(=O)(O)O (configuration not stated),> 100 µM,> 100 µM,65 µM,> 100 µM,> 100 µM,> 100 µM,> 100 µM,> 100 µM,> 100 µM,> 100 µM,–,–,–,–,–,–,–,–,–,–
CCn1c(C(=O)N(C2CC2)C2CC2)cc2c3c(ncn3C)c(Nc3cc(C)n(C)n3)nc21,> 100 µM,> 100 µM,> 100 µM,> 100 µM,> 100 µM,> 100 µM,> 100 µM,> 100 µM,> 100 µM,> 100 µM,> 100,16.8,> 100,> 100,–,> 100,0.506,> 100,98.3,> 100
CC1OC(OCC2OC(Oc3c(-c4ccc(O)cc4)oc4cc(O)cc(O)c4c3=O)C(OC3OC(C)C(O)C(O)C3O)C(O)C2O)C(O)C(O)C1O (configuration not stated),> 100 µM,> 100 µM,> 100 µM,> 100 µM,> 100 µM,> 100 µM,> 100 µM,> 100 µM,> 100 µM,> 100 µM,–,–,–,–,–,–,–,–,–,–
NC1CCCCC1.[O]=[Ge].[O]=[Ge].[O]=[Ge][OH].[O]=[Ge][OH],> 100 µM,> 100 µM,> 100 µM,> 100 µM,> 100 µM,–,> 100 µM,> 100 µM,> 100 µM,> 100 µM,–,> 100,> 100,> 100,–,–,–,–,–,–
CCCC(=O)Nc1cc(C(=O)N2C[C@@H]3C[C@]34C2=CC(=O)c2[nH]cc(C)c24)n(COC)c1,2.09 µM,24.6 µM and 26.1 µM,50 µM and 5.96 µM,9.06 µM and 5.87 µM,19.2 µM and 25.1 µM,3.57 µM and 2.43 µM,3.3 µM and 23.2 µM,31.7 µM and 16.1 µM,20.4 µM and 21.5 µM,24.4 µM and 5.09 µM,2.58,–,3.62,2.05,–,0.523,4.58,–,4.45,–
COc1ccc(N2Cc3cnc(Nc4ccccc4)nc3N([C@@H]3CC[C@@H](O)C3)C2=O)cc1,> 16.6 µM,> 25 µM,> 25 µM,> 25 µM,1.2 µM,> 18.8 µM,> 17.8 µM,> 25 µM,> 25 µM,> 25 µM,10.9,3.12,0.984,3.7,0.128,2.61,3.54,2.93,1.31,4.86
CCCc1c(CC)c(=N)c2ccccc2n1C,> 100 µM,> 100 µM,–,> 100 µM,> 100 µM,> 100 µM,> 100 µM,> 100 µM,> 100 µM,> 100 µM,59.9,> 100,> 100,–,22.8,> 100,39.3,65.6,35.8,48.9
CCCCS(=O)CCC(N)C(=O)O (configuration not stated),> 100 µM,> 100 µM,> 100 µM,> 100 µM,> 100 µM,> 100 µM,> 100 µM,> 100 µM,> 100 µM,> 100 µM,–,–,–,–,–,–,–,–,–,–
Cc1ccc(S(=O)(=O)NCCNC2=CC(=O)c3nc4ccccc4c4ccnc2c34)cc1,> 100 µM,97 µM,58.2 µM,72.7 µM,53.1 µM,37.3 µM,–,39.6 µM,34.6 µM,46.4 µM,17.5,4.77,22.3,15.7,24.1,–,16.1,15,17.8,19.5

# — PubChem BioAssay (NCI)
